Tested on: CB1R expression in liver explants of ob/ob mice
Test: Liver explant culture, CB1R gene expression (RT-PCR)
Assay type: cell-based, mouse
Conditions: liver explants of ob/ob mice treated 21 h, FIG. 1
Description: The liver of the mice was perfused in situ, under sodium pentobarbital anaesthesia (50 mg/kg), with Hank's medium (pH 7.4) saturated with oxygen. Next, the liver was sectioned using a Brendel/Vitron slicer (Tucson, Ariz., USA) in the same medium. The liver sections (about 200 μm) were then incubated 21 h in William's medium E (WME) oxygenated and supplemented with deactivated foetal calf serum (10%) and antibiotic/antifungal cocktail (1%) under controlled atmosphere (5% CO2), to which is added either the antagonist to be tested or vehicle.
Total messenger RNA (mRNA) extraction was carried out with Tri Reagent (Euromedex, France) and consecutive synthesis of complementary DNA (cDNA) was carried out from 1 μg of mRNA with the Bio-Rad iScripttm Reverse Transcription super mix kit (Bio-Rad, France).
Gene expression was evaluated by semi-quantitative real-time reverse transcription-polymerase chain reaction (RT-PCR). The primers used were designed using the Primer3Plus software (http://www.bioinformatics.nl/cgi-bin/primer3plus/primer3plus.cgi) and were synthesized by MWG-Biotech (TATA box-binding protein: Sense […], antisense […]; CB1R: Sense […], antisense aaccccacccagtttgaac). Semi-quantification of gene expression was obtained by taking into account the efficacy of each PCR and after standardization with the reporter gene, TATA box-binding protein.

## CSc1ccc(C2C(N3C(=O)c4ccccc4C3=O)C(=O)N2c2ccc(SC)cc2)cc1 (stereo not drawn) [JM-00.266, trans-1,4-di-(4-methylthiophenyl)-3-N-phthaloyl-azetidine-2-one]
  hepatic CB1R expression: significant decrease
